Common to all, as to assay: filter binding kinase assay
What all share (format): biochemical

One assay concerns the target T1, SYK (Homo sapiens, UniProt P43405).
T1 construct: purchased
As to conditions: derived from % inhibition at 1 μM. The method in brief: (§1)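 Radioactivity retained on P81 phosphocellulose filters is the read-out. Before the reaction begins, test substance sits with kinase and substrate for 5 minutes at room temperature. The ATP solution added is 5, 20 or 50 […] according to the kinase, and acid quench ends the reaction.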

For another assay, the target named is T2, KDR (VEGFR) (Homo sapiens, UniProt P35968).
T2 construct: purchased
As to conditions: for IC50: derived from % inhibition at 1 μM. The method, boiled down:
as §1

A further assay has as its target T3, PRKCA (Homo sapiens, UniProt P17252).
T3 construct: purchased
To be noted: derived from % inhibition at 1 μM. The method in brief:
as §1

A further assay deals with T4, MAP2K1 (MKK1) (Homo sapiens, UniProt Q02750).
T4 construct: purchased
To be noted: for IC50: derived from % inhibition at 1 μM. The method, boiled down: as §1

The next assay addresses T5, CAMK1 (Homo sapiens, UniProt Q14012).
T5 construct: purchased
As to conditions: derived from % inhibition at 1 μM. The method, boiled down:
as §1

The next assay has as its target T6, MAPK13 (Homo sapiens, UniProt O15264).
T6 construct: purchased
T6 sequence (O15264 1-365): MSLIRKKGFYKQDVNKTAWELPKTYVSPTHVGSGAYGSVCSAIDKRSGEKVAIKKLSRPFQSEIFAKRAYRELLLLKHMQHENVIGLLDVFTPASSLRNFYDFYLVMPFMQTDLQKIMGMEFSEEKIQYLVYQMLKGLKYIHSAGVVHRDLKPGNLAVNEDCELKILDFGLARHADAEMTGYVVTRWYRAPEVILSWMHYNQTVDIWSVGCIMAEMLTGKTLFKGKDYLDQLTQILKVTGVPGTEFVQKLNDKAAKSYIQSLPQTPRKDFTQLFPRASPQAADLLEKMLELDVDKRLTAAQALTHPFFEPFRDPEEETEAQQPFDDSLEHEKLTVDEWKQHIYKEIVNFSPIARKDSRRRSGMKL
As to conditions: derived from % inhibition at 1 μM. The method, boiled down:
as §1

Another assay deals with T7, RPS6KA5 (Homo sapiens, UniProt O75582).
T7 construct: purchased
To be noted: derived from % inhibition at 1 μM. The method, boiled down: as §1

Another assay deals with T8, MARK2 (Homo sapiens, UniProt Q7KZI7).
T8 construct: purchased
As to conditions: for IC50: derived from % inhibition at 1 μM. The method, boiled down:
as §1

In another assay the target is T9, MYLK (Homo sapiens, UniProt Q15746).
T9 construct: purchased
To be noted: derived from % inhibition at 1 μM. The method in brief: as §1

A further assay has as its target T10, AURKA (Aurora A) (Homo sapiens, UniProt O14965).
T10 construct: purchased
T10 sequence (O14965 1-403): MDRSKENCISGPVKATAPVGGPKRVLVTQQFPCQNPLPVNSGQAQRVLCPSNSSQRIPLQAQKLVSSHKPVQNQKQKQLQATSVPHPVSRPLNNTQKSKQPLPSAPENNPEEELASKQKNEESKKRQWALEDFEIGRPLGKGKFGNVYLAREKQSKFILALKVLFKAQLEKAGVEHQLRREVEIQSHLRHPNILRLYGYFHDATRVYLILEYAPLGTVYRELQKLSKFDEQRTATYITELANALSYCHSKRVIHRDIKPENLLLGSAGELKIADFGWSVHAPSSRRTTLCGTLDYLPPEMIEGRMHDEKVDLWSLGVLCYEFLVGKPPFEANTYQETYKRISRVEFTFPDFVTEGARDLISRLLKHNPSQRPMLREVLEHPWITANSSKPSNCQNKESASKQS
To be noted: for IC50: derived from % inhibition at 1 μM; for remaining activity at 1 µM: read-out: residual kinase activity Aurora A. The method, boiled down: as §1

The target in a further assay is T11, MAPKAPK5 (Homo sapiens, UniProt Q8IW41).
T11 construct: purchased
T11 sequence (Q8IW41 1-473): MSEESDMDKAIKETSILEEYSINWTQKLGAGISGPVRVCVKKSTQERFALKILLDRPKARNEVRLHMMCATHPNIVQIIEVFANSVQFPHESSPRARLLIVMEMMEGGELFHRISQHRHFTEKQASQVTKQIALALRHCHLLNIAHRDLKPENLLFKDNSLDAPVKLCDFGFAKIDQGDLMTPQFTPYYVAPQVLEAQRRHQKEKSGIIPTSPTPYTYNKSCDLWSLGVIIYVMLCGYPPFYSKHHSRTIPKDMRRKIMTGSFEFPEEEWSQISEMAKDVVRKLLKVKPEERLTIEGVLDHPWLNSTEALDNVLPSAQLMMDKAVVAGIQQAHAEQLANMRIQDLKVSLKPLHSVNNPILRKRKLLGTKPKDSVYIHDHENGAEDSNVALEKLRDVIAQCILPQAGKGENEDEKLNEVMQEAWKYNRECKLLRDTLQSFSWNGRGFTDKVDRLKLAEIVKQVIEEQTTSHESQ
As to conditions: derived from % inhibition at 1 μM. The method in brief:
as §1

Data on 5 compounds can be found in patent US8703961B2, “Thiazole derivatives for the treatment of diseases such as cancer” (Merck Patent GmbH, priority 2009, dated 2014).

T8 sequence (Q7KZI7 whole entry, species assumed): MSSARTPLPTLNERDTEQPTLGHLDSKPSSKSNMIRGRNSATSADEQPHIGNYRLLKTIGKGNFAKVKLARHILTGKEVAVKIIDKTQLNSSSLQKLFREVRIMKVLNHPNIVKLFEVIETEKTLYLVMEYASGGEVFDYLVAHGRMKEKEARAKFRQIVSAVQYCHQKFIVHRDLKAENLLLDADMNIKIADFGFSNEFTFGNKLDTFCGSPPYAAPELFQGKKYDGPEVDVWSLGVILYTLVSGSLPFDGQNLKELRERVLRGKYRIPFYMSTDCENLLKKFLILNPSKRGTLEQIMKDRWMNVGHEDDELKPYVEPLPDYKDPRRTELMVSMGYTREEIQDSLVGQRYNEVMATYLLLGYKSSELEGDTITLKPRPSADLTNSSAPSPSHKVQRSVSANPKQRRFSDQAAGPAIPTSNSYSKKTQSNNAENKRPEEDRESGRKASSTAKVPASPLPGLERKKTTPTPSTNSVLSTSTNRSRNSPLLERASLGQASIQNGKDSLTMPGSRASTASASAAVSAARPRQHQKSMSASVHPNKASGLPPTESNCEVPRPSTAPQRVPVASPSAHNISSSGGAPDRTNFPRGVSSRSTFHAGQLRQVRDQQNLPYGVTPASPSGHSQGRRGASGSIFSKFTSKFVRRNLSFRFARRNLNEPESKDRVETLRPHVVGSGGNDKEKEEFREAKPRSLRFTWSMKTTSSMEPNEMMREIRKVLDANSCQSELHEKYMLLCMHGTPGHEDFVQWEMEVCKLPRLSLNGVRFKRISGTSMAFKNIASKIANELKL
T7 sequence (O75582 whole entry, species assumed): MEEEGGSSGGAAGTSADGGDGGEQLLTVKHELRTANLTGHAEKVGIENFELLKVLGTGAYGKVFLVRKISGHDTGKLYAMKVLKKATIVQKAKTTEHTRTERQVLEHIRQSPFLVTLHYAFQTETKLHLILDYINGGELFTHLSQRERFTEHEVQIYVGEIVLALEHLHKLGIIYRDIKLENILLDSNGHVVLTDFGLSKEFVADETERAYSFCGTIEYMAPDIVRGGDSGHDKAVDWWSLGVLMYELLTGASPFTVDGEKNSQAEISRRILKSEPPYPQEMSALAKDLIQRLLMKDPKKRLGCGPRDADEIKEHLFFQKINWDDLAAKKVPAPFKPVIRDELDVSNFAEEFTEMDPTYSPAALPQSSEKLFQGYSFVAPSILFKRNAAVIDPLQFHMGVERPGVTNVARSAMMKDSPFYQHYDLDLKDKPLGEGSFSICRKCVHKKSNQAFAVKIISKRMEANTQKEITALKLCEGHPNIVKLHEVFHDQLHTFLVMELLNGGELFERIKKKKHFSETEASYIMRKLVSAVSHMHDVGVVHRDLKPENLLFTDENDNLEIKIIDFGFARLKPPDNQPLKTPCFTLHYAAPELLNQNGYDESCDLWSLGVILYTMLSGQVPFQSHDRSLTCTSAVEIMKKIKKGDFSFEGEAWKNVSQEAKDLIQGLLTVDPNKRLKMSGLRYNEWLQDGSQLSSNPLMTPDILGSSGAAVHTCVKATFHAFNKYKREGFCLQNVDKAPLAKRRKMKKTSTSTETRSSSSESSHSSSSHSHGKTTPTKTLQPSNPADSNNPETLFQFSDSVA
T4 sequence (Q02750 whole entry, species assumed): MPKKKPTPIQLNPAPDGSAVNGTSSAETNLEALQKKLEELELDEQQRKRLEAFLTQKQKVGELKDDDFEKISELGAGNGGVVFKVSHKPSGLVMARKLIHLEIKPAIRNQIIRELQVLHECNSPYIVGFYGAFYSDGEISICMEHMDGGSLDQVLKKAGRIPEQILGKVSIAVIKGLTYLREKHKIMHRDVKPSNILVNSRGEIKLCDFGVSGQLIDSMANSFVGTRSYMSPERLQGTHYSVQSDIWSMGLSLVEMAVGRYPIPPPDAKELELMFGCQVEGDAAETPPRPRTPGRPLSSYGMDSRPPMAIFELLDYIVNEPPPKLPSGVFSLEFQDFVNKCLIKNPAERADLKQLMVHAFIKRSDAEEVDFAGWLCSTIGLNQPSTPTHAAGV
T2 sequence (P35968 20-1356, species assumed): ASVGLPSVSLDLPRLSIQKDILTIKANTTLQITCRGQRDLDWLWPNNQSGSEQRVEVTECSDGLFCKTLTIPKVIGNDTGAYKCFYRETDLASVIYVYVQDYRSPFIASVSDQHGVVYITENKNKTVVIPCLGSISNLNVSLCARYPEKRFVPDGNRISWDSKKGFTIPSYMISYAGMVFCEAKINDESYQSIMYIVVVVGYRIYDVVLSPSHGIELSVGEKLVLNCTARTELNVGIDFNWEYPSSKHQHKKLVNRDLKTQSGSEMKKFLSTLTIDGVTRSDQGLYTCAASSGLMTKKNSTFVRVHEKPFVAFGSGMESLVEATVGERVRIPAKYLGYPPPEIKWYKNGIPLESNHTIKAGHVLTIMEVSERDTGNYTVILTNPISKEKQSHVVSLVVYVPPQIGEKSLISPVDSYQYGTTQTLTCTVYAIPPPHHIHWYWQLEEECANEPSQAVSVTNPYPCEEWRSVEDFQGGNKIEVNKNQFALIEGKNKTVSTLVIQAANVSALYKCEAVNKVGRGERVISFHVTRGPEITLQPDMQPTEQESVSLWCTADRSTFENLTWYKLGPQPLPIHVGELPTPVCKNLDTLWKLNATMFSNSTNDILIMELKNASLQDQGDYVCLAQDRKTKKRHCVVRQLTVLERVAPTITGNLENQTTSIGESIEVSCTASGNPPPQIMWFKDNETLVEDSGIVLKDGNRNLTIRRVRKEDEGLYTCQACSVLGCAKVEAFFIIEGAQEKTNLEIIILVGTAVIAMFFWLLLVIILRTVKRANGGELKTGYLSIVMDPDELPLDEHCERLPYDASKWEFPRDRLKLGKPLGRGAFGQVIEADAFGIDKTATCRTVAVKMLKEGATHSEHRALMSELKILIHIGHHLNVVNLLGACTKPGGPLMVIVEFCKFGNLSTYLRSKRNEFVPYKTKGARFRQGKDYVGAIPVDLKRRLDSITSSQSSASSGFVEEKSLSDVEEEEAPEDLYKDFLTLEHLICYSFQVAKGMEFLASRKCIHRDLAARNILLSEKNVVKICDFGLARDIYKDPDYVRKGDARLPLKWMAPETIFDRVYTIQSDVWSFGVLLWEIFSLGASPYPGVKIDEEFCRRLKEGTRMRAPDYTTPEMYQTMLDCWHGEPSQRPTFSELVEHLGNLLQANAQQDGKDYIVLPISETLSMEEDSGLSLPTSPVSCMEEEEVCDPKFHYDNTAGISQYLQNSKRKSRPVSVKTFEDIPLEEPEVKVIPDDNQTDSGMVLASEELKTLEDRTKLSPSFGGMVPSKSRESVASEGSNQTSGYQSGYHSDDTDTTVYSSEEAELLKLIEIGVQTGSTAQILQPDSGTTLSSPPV

What is called IC50 is the concentration that gives 50% inhibition. Turning to `Nc1ncsc1C#Cc1cnc2[nH]ccc2c1` [Compound A22, 5-(1H-pyrrolo[2,3-b]pyridin-5-ylethynyl)thiazol-4-ylamine], the IC50 at SYK fell in the range of 10 to 100 µM; on KDR (VEGFR), 0.01 to 1 µM; on PRKCA it was 1 to 10 µM; at MAP2K1 (MKK1), 0.01 to 1 µM; on CAMK1, 10 to 100 µM; on MAPK13, 10 to 100 µM. In addition, the IC50 is 10 to 100 µM on RPS6KA5; 0.01 to 1 µM at MARK2; above 1 µM at MYLK; 0.01 to 1 µM on AURKA (Aurora A); 10 to 100 µM at MAPKAPK5. The remaining activity at 1 µM at KDR (VEGFR) (read-out: residual kinase activity VEGFR) was found to be 11%; on MAP2K1 (MKK1) (read-out: residual kinase activity MKK1) it was 43%; at MARK2 (read-out: residual kinase activity MARK2), 31%; at AURKA (Aurora A), 39%.

With `CC(C)(C)OC(=O)Nc1ncsc1C#CCN1C(=O)c2ccccc2C1=O` [Compound A26, tert-butyl{5-[3-(1,3-dioxo-1,3-dihydroisoindol-2-yl)prop-1-ynyl]-thiazol-4-yl}carbamate], the half-inhibitory concentration (IC50) on SYK was above 1 µM; at KDR (VEGFR), above 1 µM; at PRKCA, 1 to 10 µM; on MAP2K1 (MKK1), 1 to 10 µM; on CAMK1 it was above 1 µM; at MAPK13, 10 to 100 µM. For the same compound, the IC50 at RPS6KA5 is above 1 µM; on MARK2 it was 1 to 10 µM; at MYLK it was above 1 µM; on AURKA (Aurora A), 1 to 10 µM; at MAPKAPK5, 1 to 10 µM.

Consider `Nc1ncsc1C#Cc1cccc(O)c1` [Compound A27, 3-(4-aminothiazol-5-ylethynyl)phenol], for which the IC50 is 10 to 100 µM at SYK; 1 to 10 µM on KDR (VEGFR); above 1 µM at PRKCA; above 1 µM at MAP2K1 (MKK1); 1 to 10 µM at CAMK1; 1 to 10 µM at MAPK13. The IC50 fell in the range of 10 to 100 µM on RPS6KA5; 10 to 100 µM on MARK2; 1 to 10 µM at MYLK; 1 to 10 µM on AURKA (Aurora A); 10 to 100 µM at MAPKAPK5.

For the compound `CC(C)(C)OC(=O)Nc1nc(-c2ccncc2)sc1C#CCN1CCOCC1` [Compound A25, tert-butyl[5-(3-morpholin-4-ylprop-1-ynyl)-2-pyridin-4-ylthiazol-4-yl]-carbamate], the IC50 at SYK is above 1 µM; on KDR (VEGFR), above 1 µM; at PRKCA, 10 to 100 µM; on MAP2K1 (MKK1), 1 to 10 µM; at CAMK1 it was 1 to 10 µM; at MAPK13, above 1 µM. Moreover, the IC50 on RPS6KA5 is 10 to 100 µM; at MARK2, above 1 µM; on MYLK it was above 1 µM; at AURKA (Aurora A), above 1 µM; at MAPKAPK5, above 1 µM.

For the compound `c1ccc(Cc2c[nH]c3ncsc23)cc1` [Compound A7, 6-benzyl-4H-pyrrolo[2,3-d]thiazole], the IC50 is above 1 µM on SYK; 1 to 10 µM at KDR (VEGFR); 10 to 100 µM on PRKCA; 1 to 10 µM on MAP2K1 (MKK1); 1 to 10 µM on CAMK1; 1 to 10 µM on MAPK13. Further, the IC50 is 1 to 10 µM at RPS6KA5; 10 to 100 µM at MARK2; above 1 µM at MYLK; 0.01 to 1 µM at AURKA (Aurora A); above 1 µM on MAPKAPK5. On AURKA (Aurora A), the remaining activity at 1 µM worked out at 33%.
